Values after ≈ are worked out from the molar mass of the structure shown.
Key:
Assay type in all cases: functional
[1] = test system: Staphylococcus aureus; experiment: Anti-bacterial activity against methicillin-resistant Staphylococcus aureus N315 assessed as inhibition of bacterial growth; details: Staphylococcus aureus, N315; read-out: MIC
[2] = test system: Staphylococcus aureus; experiment: Anti-bacterial activity against methicillin-resistant Staphylococcus aureus ATCC 43300 assessed as inhibition of bacterial growth; details: Staphylococcus aureus, ATCC 43300; read-out: MIC
[3] = test system: Enterococcus faecalis; experiment: Anti-bacterial activity against Enterococcus faecalis V583 assessed as inhibition of bacterial growth
[4] = test system: Klebsiella pneumoniae; experiment: Anti-bacterial activity against Klebsiella pneumoniae KPN325 assessed as inhibition of bacterial growth; details: Klebsiella pneumoniae, KPN325; read-out: MIC
[5] = test system: Staphylococcus aureus; experiment: Anti-bacterial activity against Staphylococcus aureus ATCC 1708 assessed as inhibition of bacterial growth; details: Staphylococcus aureus, ATCC 1708; read-out: MIC
[6] = test system: Staphylococcus aureus; experiment: Anti-bacterial activity against Staphylococcus aureus ATCC 25923 assessed as inhibition of bacterial growth; details: Staphylococcus aureus, ATCC 25923; read-out: MIC
[7] = test system: Staphylococcus aureus; experiment: Anti-bacterial activity against Staphylococcus aureus ATCC 29213 assessed as inhibition of bacterial growth; details: Staphylococcus aureus, ATCC 29213; read-out: MIC
[8] = test system: Staphylococcus aureus; experiment: Anti-bacterial activity against Staphylococcus aureus ATCC 12600 assessed as inhibition of bacterial growth; details: Staphylococcus aureus, ATCC 12600; read-out: MIC
[9] = test system: Staphylococcus aureus; experiment: Anti-bacterial activity against Staphylococcus aureus ATCC 6538 assessed as inhibition of bacterial growth
[10] = test system: Staphylococcus aureus; experiment: Anti-bacterial activity against Staphylococcus aureus CMCC (B) 26003 assessed as inhibition of bacterial growth
[11] = test system: Staphylococcus aureus; experiment: Anti-bacterial activity against Staphylococcus aureus CMCC (B) 26001 assessed as inhibition of bacterial growth
[12] = test system: Escherichia coli; experiment: Anti-bacterial activity against Escherichia coli JM109 assessed as inhibition of bacterial growth
[13] = test system: Escherichia coli; experiment: Anti-bacterial activity against Escherichia coli ATCC 25922 assessed as inhibition of bacterial growth
[14] = test system: Pseudomonas aeruginosa; experiment: Anti-bacterial activity against Pseudomonas aeruginosa ST235 assessed as inhibition of bacterial growth; details: Pseudomonas aeruginosa, ST235; read-out: MIC
[15] = test system: Pseudomonas aeruginosa; experiment: Anti-bacterial activity against Pseudomonas aeruginosa ATCC 27853 assessed as inhibition of bacterial growth; details: Pseudomonas aeruginosa, ATCC 27853; read-out: MIC
[16] = test system: Pseudomonas aeruginosa; experiment: Anti-bacterial activity against Pseudomonas aeruginosa ATCC 15442 assessed as inhibition of bacterial growth; details: Pseudomonas aeruginosa, ATCC 15442; read-out: MIC
[17] = test system: Pseudomonas aeruginosa; experiment: Anti-bacterial activity against Pseudomonas aeruginosa ATCC 9027 assessed as inhibition of bacterial growth
[18] = test system: Pseudomonas aeruginosa; experiment: Anti-bacterial activity against Pseudomonas aeruginosa CMCC (B) 10104 assessed as inhibition of bacterial growth; details: Pseudomonas aeruginosa, CMCC (B) 10104; read-out: MIC
[19] = test system: Acinetobacter baumannii; experiment: Anti-bacterial activity against Acinetobacter baumannii R674 assessed as inhibition of bacterial growth
[20] = test system: Candida albicans; experiment: Anti-fungal activity against Candida albicans assessed as inhibition of fungal growth; details: Candida albicans; read-out: MIC
[21] = test system: Candida albicans; experiment: Anti-fungal activity against Candida albicans 90023 assessed as inhibition of fungal growth
[22] = test system: Candida tropicalis; experiment: Anti-fungal activity against Candida tropicalis assessed as inhibition of fungal growth; details: Candida tropicalis; read-out: MIC
[23] = test system: Candida parapsilosis; experiment: Anti-fungal activity against Candida parapsilosis assessed as inhibition of fungal growth; details: Lodderomyces parapsilosis; read-out: MIC

| SMILES | MIC [1] [µM] | MIC [2] [µM] | MIC [3] [µM] | MIC [4] [µM] | MIC [5] [µM] | MIC [6] [µM] | MIC [7] [µM] | MIC [8] [µM] | MIC [9] [µM] | MIC [10] [µM] | MIC [11] [µM] | MIC [12] [µM] | MIC [13] [µM] | MIC [14] [µM] | MIC [15] [µM] | MIC [16] [µM] | MIC [17] [µM] | MIC [18] [µM] | MIC [19] [µM] | MIC [20] [µM] | further results |
| --- | --- | --- | --- | --- | --- | --- | --- | --- | --- | --- | --- | --- | --- | --- | --- | --- | --- | --- | --- | --- | --- |
| CCOC(=O)C1=C(CN2CCN(C(=O)/C(=N/OC)c3csc(N)n3)CC2)NC(=O)NC1c1ccc(O)c(OC)c1 (stereo not drawn) | 112 (≈ 64.2 µg/mL) | 28 (≈ 16.1 µg/mL) | 14 (≈ 8.03 µg/mL) | 48 (≈ 27.5 µg/mL) | 112 (≈ 64.2 µg/mL) | 56 (≈ 32.1 µg/mL) | 56 (≈ 32.1 µg/mL) | 112 (≈ 64.2 µg/mL) | 112 (≈ 64.2 µg/mL) | 112 (≈ 64.2 µg/mL) | 56 (≈ 32.1 µg/mL) | 95 (≈ 54.5 µg/mL) | 48 (≈ 27.5 µg/mL) | 48 (≈ 27.5 µg/mL) | 48 (≈ 27.5 µg/mL) | 48 (≈ 27.5 µg/mL) | 95 (≈ 54.5 µg/mL) | 95 (≈ 54.5 µg/mL) | 48 (≈ 27.5 µg/mL) | 444 (≈ 255 µg/mL) | MIC [21]: 444 µM (≈ 255 µg/mL); MIC [22]: 444 µM (≈ 255 µg/mL); MIC [23]: 444 µM (≈ 255 µg/mL) |
| CCOC(=O)C1=C(CN2CCN(C(=O)/C(=N/OC)c3csc(N)n3)CC2)NC(=O)NC1c1ccc(O)c(Br)c1 (stereo not drawn) | 103 (≈ 64.1 µg/mL) | 26 (≈ 16.2 µg/mL) | 13 (≈ 8.09 µg/mL) | 52 (≈ 32.4 µg/mL) | 103 (≈ 64.1 µg/mL) | 26 (≈ 16.2 µg/mL) | 52 (≈ 32.4 µg/mL) | 52 (≈ 32.4 µg/mL) | 52 (≈ 32.4 µg/mL) | 103 (≈ 64.1 µg/mL) | 52 (≈ 32.4 µg/mL) | 52 (≈ 32.4 µg/mL) | 52 (≈ 32.4 µg/mL) | 52 (≈ 32.4 µg/mL) | 52 (≈ 32.4 µg/mL) | 52 (≈ 32.4 µg/mL) | 103 (≈ 64.1 µg/mL) | 103 (≈ 64.1 µg/mL) | 26 (≈ 16.2 µg/mL) | 415 (≈ 258 µg/mL) | MIC [21]: 104 µM (≈ 64.7 µg/mL); MIC [22]: 415 µM (≈ 258 µg/mL); MIC [23]: 415 µM (≈ 258 µg/mL) |
| CCOC(=O)C1=C(CN2CCNCC2)NC(=O)NC1c1ccc2c(c1)c1ccccc1n2CC (stereo not drawn) | 222 (≈ 102 µg/mL) | 111 (≈ 51.2 µg/mL) | 28 (≈ 12.9 µg/mL) | 222 (≈ 102 µg/mL) | 222 (≈ 102 µg/mL) | 222 (≈ 102 µg/mL) | 14 (≈ 6.46 µg/mL) | 222 (≈ 102 µg/mL) | 111 (≈ 51.2 µg/mL) | 222 (≈ 102 µg/mL) | 111 (≈ 51.2 µg/mL) | 222 (≈ 102 µg/mL) | 222 (≈ 102 µg/mL) | 222 (≈ 102 µg/mL) | 222 (≈ 102 µg/mL) | 56 (≈ 25.8 µg/mL) | 444 (≈ 205 µg/mL) | 444 (≈ 205 µg/mL) | 7 (≈ 3.23 µg/mL) | 470 (≈ 217 µg/mL) | MIC [21]: 59 µM (≈ 27.2 µg/mL); MIC [22]: 470 µM (≈ 217 µg/mL); MIC [23]: 470 µM (≈ 217 µg/mL) |
| CCOC(=O)C1=C(CN2CCN(C(=O)/C(=N/OC)c3csc(N)n3)CC2)NC(=O)NC1c1ccc(F)cc1 (stereo not drawn) | 117 (≈ 63.8 µg/mL) | 59 (≈ 32.2 µg/mL) | 29 (≈ 15.8 µg/mL) | 117 (≈ 63.8 µg/mL) | 117 (≈ 63.8 µg/mL) | 59 (≈ 32.2 µg/mL) | 59 (≈ 32.2 µg/mL) | 59 (≈ 32.2 µg/mL) | 117 (≈ 63.8 µg/mL) | 235 (≈ 128 µg/mL) | 59 (≈ 32.2 µg/mL) | 117 (≈ 63.8 µg/mL) | 59 (≈ 32.2 µg/mL) | 117 (≈ 63.8 µg/mL) | 117 (≈ 63.8 µg/mL) | 59 (≈ 32.2 µg/mL) | 117 (≈ 63.8 µg/mL) | 117 (≈ 63.8 µg/mL) | 59 (≈ 32.2 µg/mL) | 447 (≈ 244 µg/mL) | MIC [21]: 6 µM (≈ 3.27 µg/mL); MIC [22]: 447 µM (≈ 244 µg/mL); MIC [23]: 447 µM (≈ 244 µg/mL) |
| CCCCc1nc(Cl)c(C2NC(=O)NC(CN3CCN(CC(=O)c4ccc(Cl)cc4)CC3)=C2C(=O)OCC)[nH]1 (stereo not drawn) | 222 (≈ 128 µg/mL) | 56 (≈ 32.3 µg/mL) | 222 (≈ 128 µg/mL) | 222 (≈ 128 µg/mL) | 444 (≈ 256 µg/mL) | 222 (≈ 128 µg/mL) | 56 (≈ 32.3 µg/mL) | 56 (≈ 32.3 µg/mL) | 444 (≈ 256 µg/mL) | 56 (≈ 32.3 µg/mL) | 28 (≈ 16.2 µg/mL) | 222 (≈ 128 µg/mL) | 111 (≈ 64.1 µg/mL) | 111 (≈ 64.1 µg/mL) | 111 (≈ 64.1 µg/mL) | 111 (≈ 64.1 µg/mL) | 28 (≈ 16.2 µg/mL) | 56 (≈ 32.3 µg/mL) | 111 (≈ 64.1 µg/mL) | 444 (≈ 256 µg/mL) | MIC [21]: 14 µM (≈ 8.09 µg/mL); MIC [22]: 444 µM (≈ 256 µg/mL); MIC [23]: 444 µM (≈ 256 µg/mL) |
| CCOC(=O)C1=C(CN2CCN(C(=O)/C(=N/OC)c3csc(N)n3)CC2)NC(=O)NC1c1ccc(N(C)C)cc1 (stereo not drawn) | 449 (≈ 256 µg/mL) | 56 (≈ 32 µg/mL) | 28 (≈ 16 µg/mL) | 225 (≈ 128 µg/mL) | 112 (≈ 63.9 µg/mL) | 112 (≈ 63.9 µg/mL) | 225 (≈ 128 µg/mL) | 225 (≈ 128 µg/mL) | 28 (≈ 16 µg/mL) | 225 (≈ 128 µg/mL) | 449 (≈ 256 µg/mL) | 112 (≈ 63.9 µg/mL) | 225 (≈ 128 µg/mL) | 225 (≈ 128 µg/mL) | 225 (≈ 128 µg/mL) | 225 (≈ 128 µg/mL) | 225 (≈ 128 µg/mL) | 225 (≈ 128 µg/mL) | 56 (≈ 32 µg/mL) | 412 (≈ 235 µg/mL) | MIC [21]: 52 µM (≈ 29.7 µg/mL); MIC [22]: 412 µM (≈ 235 µg/mL); MIC [23]: 412 µM (≈ 235 µg/mL) |

From ChEMBL document CHEMBL5505979, “Novel aminothiazoximone-corbelled ethoxycarbonylpyrimidones with antibiofilm activity to conquer Gram-negative bacteria through potential multitargeting effects” (Eur J Med Chem, 2024)
